Source: PMC4545913, “Dual EZH2 and EHMT2 histone methyltransferase inhibition increases biological efficacy in breast cancer cells” (Clinical Epigenetics, 2015)

Tested on: H3K27me3 and H3K9me3 at target genes
Assay: Chromatin immunoprecipitation (ChIP-PCR) in MDA-MB-231 cells
Format: cell-based
Details: MDA-MB-231, 2.5 μM, 24 h
From the text: Fig. 3 Effects of hit compounds on RNA levels and histone marks. a Sybr green real-time PCR mRNA level measurement of EZH2 target genes and executing enzymes following a 48-h compound treatment at different concentrations of MDA-MB-231 cells. Measurements marked with an ‘*’ are below detection limit, most likely due to cell death. […] Error bars represent the mean ± SD of experiment performed in technical triplicate. b Sybr green real-time PCR measurement of the FBXO32 transcription start site and KRT17 promoter region following chromatin immunoprecipitation, using antibodies to the histone marks shown, of MDA-MB-231 cells treated with three selected compounds at 5 μM for 72 h. […] The fold difference to the untreated sample is shown. Each IP-value has been determined as the relative increase to the no-antibody control and then normalised to GAPDH levels
Fig. 4 Compound-induced upregulation of EZH2-repressed target genes. a Enrichment scores for differential expression of EZH2 targets on treatment with panel of compounds. […] Each IP-value has been determined as the relative increase to the no-antibody control and is shown as fold difference relative to the untreated control. d Western blot showing levels of modified histones, following a 48-h treatment with HKMTI-1-005 at different doses. […]

## COc1cc2nc(N3CCN(C)CC3)nc(NC3CCN(Cc4ccccc4)CC3)c2cc1OC [HKMTI-1-005]
  H3K27me3 and H3K9me3 at the SPINK1 transcription start site (ChIP-PCR): reduction in both H3K27me3 and H3K9me3
